# In paper PMC10096163, “Structural Insights and Intermolecular Energy for Some Medium and Long-Chain Testosterone Esters” (Molecules, 2023):
# Where two headings read alike, the source gives them in different places.
# What was measured:
# [1] = Solubility of esters in benzyl alcohol / benzyl benzoate / oil mixtures; assay type: physicochemical; conditions: for solubility: oil or lipid, thermodynamic from solid
# Description: The esters’ solubility (mg/mL) was evaluated in mixtures which included different solvents and organic oils, such as medium-chain triglyceride (MCT), apricot, grape seed (GSO), castor, cottonseed, […] sesame oil.
# The solutions contained mixtures of benzyl alcohol, benzyl benzoate and oil, with a volumetric ratio of 2% benzyl alcohol, 20% benzyl benzoate and 78% oil. Numerous pharmaceuticals of various lipophilic agents (various steroids were included) use benzyl benzoate as a co-solvent/solubilizer; benzyl alcohol behaves as well as a solvent and inhibits the microbial growth, and meanwhile the oils act as carriers.
# In certain cases, an excess of raw samples remained undissolved (in suspension) and small quantities of mixtures were added, ensuring that the resulting solutions became homogenous, clear and transparent. Three measurements were taken to improve accuracy, and their average value was used.
# [2] = parameters: method as in PMID 36295310; conditions: short esters, previously reported; cited from earlier work
# [3] = cited from earlier work
# [4] = 14 °C, 2% benzyl alcohol, 20% benzyl benzoate, 78% medium-chain triglyceride, 14 °C, average of three measurements, read-out: Solubility MCT
# [5] = 14 °C, average over the six oil mixtures, 14 °C, read-out: Average solubility
# [6] = benzyl alcohol / benzyl benzoate / apricot oil mixture, 14 °C, 2% benzyl alcohol, 20% benzyl benzoate, 78% apricot oil, 14 °C, average of three measurements, read-out: Solubility APRICOT
# [7] = benzyl alcohol / benzyl benzoate / castor oil mixture, 14 °C, 2% benzyl alcohol, 20% benzyl benzoate, 78% castor oil, 14 °C, average of three measurements, read-out: Solubility CASTOR
# [8] = benzyl alcohol / benzyl benzoate / cottonseed oil mixture, 14 °C, 2% benzyl alcohol, 20% benzyl benzoate, 78% cottonseed oil, 14 °C, average of three measurements, read-out: Solubility COTTON
# [9] = benzyl alcohol / benzyl benzoate / grape seed oil mixture, 14 °C, 2% benzyl alcohol, 20% benzyl benzoate, 78% grape seed oil, 14 °C, average of three measurements, read-out: Solubility GSO
# [10] = benzyl alcohol / benzyl benzoate / sesame oil mixture, 14 °C, 2% benzyl alcohol, 20% benzyl benzoate, 78% sesame oil, 14 °C, average of three measurements, read-out: Solubility SESAME
# [11] = esterified form, intramuscular or subcutaneous injection
Compound,"solubility [1, 4]","solubility [1, 5]","solubility [1, 6]","solubility [1, 7]","solubility [1, 8]","solubility [1, 9]","solubility [1, 10]","Solubility, averaging [2]","Half-life [3, 11]",other results
"C[C@]12CC[C@H]3[C@@H](CCC4=CC(=O)CC[C@@]43C)[C@@H]1CC[C@@H]2OC(=O)CCC1CCCC1 [TCyp, Androst-4-en-17β-ol-3-one 17β-cyclopentylpropionate]",257 mg/mL,~255 mg/mL,238 mg/mL,287 mg/mL,236 mg/mL,239 mg/mL,278 mg/mL,–,–,–
CC(C)CCC(=O)O[C@H]1CC[C@H]2[C@@H]3CCC4=CC(=O)CC[C@]4(C)[C@H]3CC[C@]12C [isocaproate],–,–,–,–,–,–,–,447 mg/mL,–,–
Androst-4-en-17β-ol-3-one 17β-undecanoate [TUnd],–,–,–,–,–,–,–,–,up to 36 days,"Solubility APRICOT ([1]; 2% benzyl alcohol, 20% benzyl benzoate, 78% apricot oil, 14 °C, average of three measurements): 200.1 mg/mL; Solubility CASTOR ([1]; 2% benzyl alcohol, 20% benzyl benzoate, 78% castor oil, 14 °C, average of three measurements): 196.3 mg/mL; Solubility COTTON ([1]; 2% benzyl alcohol, 20% benzyl benzoate, 78% cottonseed oil, 14 °C, average of three measurements): 195.5 mg/mL; Solubility GSO ([1]; 2% benzyl alcohol, 20% benzyl benzoate, 78% grape seed oil, 14 °C, average of three measurements): 183.1 mg/mL; Solubility MCT ([1]; 2% benzyl alcohol, 20% benzyl benzoate, 78% medium-chain triglyceride, 14 °C, average of three measurements): 201.8 mg/mL; Solubility SESAME ([1]; 2% benzyl alcohol, 20% benzyl benzoate, 78% sesame oil, 14 °C, average of three measurements): 209.1 mg/mL; Average solubility ([1]; average over the six oil mixtures, 14 °C): roughly 197 mg/mL"
"CCCCCCCCCC(=O)OC1CCC2C3CCC4=CC(=O)CCC4(C)C3CCC12C (stereo not drawn) [TDec, Androst-4-en-17β-ol-3-one 17β-decanoate]",597 mg/mL,534 mg/mL,537 mg/mL,530 mg/mL,496 mg/mL,497 mg/mL,549 mg/mL,–,–,"Solubility fold greater than the other esters ([1]; TDec compared with TCyp and TUnd, average solubility): 2.5–3 fold"
CC(=O)O[C@H]1CC[C@H]2[C@@H]3CCC4=CC(=O)CC[C@]4(C)[C@H]3CC[C@]12C [testosterone acetate],–,–,–,–,–,–,–,110 mg/mL,less than 24 h,–
"C[C@]12CC[C@H]3[C@@H](CCC4=CC(=O)CC[C@@]43C)[C@@H]1CC[C@@H]2O [Testosterone, 17β-Hydroxyandrost-4-en-3-one]",–,–,–,–,–,–,–,–,–,Half-life ([3]; non-esterified testosterone): a few hours
